In PubChem BioAssay (NCI):
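Briefly, cells in 96-well plates were exposed to five compound concentrations for 48 h, and endpoints were estimated by linear interpolation. Abbreviation: GI50, concentration required for 50% inhibition of growth. TGI marks complete inhibition of growth.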

Assays:
Assay in all cases: NCI-60 cell line screen, 48 h
OVCAR-8 ovarian = system: OVCAR-8 ovarian
NCI-H23 lung = system: NCI-H23 lung
HCT-15 colon = system: HCT-15 colon
UACC-257 melanoma = system: UACC-257 melanoma
SR leukemia = system: SR leukemia
HCC-2998 colon = system: HCC-2998 colon
A549 NSCLC = system: A549 NSCLC
HOP-62 NSCLC = system: HOP-62 NSCLC
ACHN renal = system: ACHN renal
U251 CNS = system: U251 CNS

For `COc1ccc(/C=C2/CN(CCC#N)C/C(=C\c3ccc(OC)cc3)C2=O)cc1`, the GI50 (OVCAR-8 ovarian) was 3.05 µM, the TGI (OVCAR-8 ovarian) was greater than 100 µM and the GI50 (NCI-H23 lung) was 3.34 µM. For the same molecule, the TGI (NCI-H23 lung) was 19.8 µM, the GI50 (HCT-15 colon) was 2.51 µM and the TGI (HCT-15 colon) was 21.8 µM. The GI50 (UACC-257 melanoma) was 2.63 µM, the TGI (UACC-257 melanoma) was 7.44 µM and the GI50 (SR leukemia) was 1.07 µM. It also gave a TGI (SR leukemia) greater than 100 µM, a GI50 (HCC-2998 colon) of 1.9 µM and a TGI (HCC-2998 colon) of 3.47 µM. It also gave a GI50 (A549 NSCLC) of 2.92 µM, a TGI (A549 NSCLC) greater than 100 µM and a GI50 (HOP-62 NSCLC) of 2.17 µM. The TGI (HOP-62 NSCLC) was 4.79 µM, the GI50 (ACHN renal) was 2.06 µM and the TGI (ACHN renal) was 4.48 µM. For the same molecule, the GI50 (U251 CNS) was 2.1 µM and the TGI (U251 CNS) was 5.1 µM.
`O=C(Nc1ccccc1)Nc1ccc(Cl)c(Cl)c1` showed a GI50 (OVCAR-8 ovarian) of 3.2 µM, a TGI (OVCAR-8 ovarian) of 79.3 µM and a GI50 (NCI-H23 lung) of 2.58 µM. The TGI (NCI-H23 lung) was greater than 100 µM, the GI50 (HCT-15 colon) was 3.22 µM and the TGI (HCT-15 colon) was greater than 100 µM. It also gave a GI50 (UACC-257 melanoma) of 3.73 µM, a TGI (UACC-257 melanoma) of 32.9 µM and a GI50 (HCC-2998 colon) of 4.03 µM. For the same molecule, the TGI (HCC-2998 colon) was greater than 100 µM, the GI50 (A549 NSCLC) was 3.04 µM and the TGI (A549 NSCLC) was greater than 100 µM. The GI50 (HOP-62 NSCLC) was 5.84 µM, the TGI (HOP-62 NSCLC) was greater than 100 µM and the GI50 (ACHN renal) was 3.59 µM. The TGI (ACHN renal) was 97.1 µM, the GI50 (U251 CNS) was 3.23 µM and the TGI (U251 CNS) was 20.8 µM.
For `CC(C)COC(c1ccc2c(c1)OCO2)C(C)Br` (stereo unspecified), the TGI (OVCAR-8 ovarian) was greater than 100 µM, the TGI (NCI-H23 lung) was 72.9 µM and the TGI (HCT-15 colon) was 66.1 µM. The TGI (UACC-257 melanoma) was 55.5 µM, the TGI (SR leukemia) was 46.1 µM and the TGI (HCC-2998 colon) was 38.6 µM. It also gave a TGI (A549 NSCLC) greater than 100 µM, a TGI (HOP-62 NSCLC) of 77.9 µM and a TGI (ACHN renal) greater than 100 µM. It also gave a TGI (U251 CNS) of 93.8 µM.
`O=C1NC(=N[C@H](CO)c2ccccc2)S/C1=C\c1ccc2ncccc2c1` was tested, and the GI50 (OVCAR-8 ovarian) was 5.27 µM, the TGI (OVCAR-8 ovarian) was greater than 25 µM and the GI50 (NCI-H23 lung) was 6.42 µM. It also gave a TGI (NCI-H23 lung) greater than 25 µM, a GI50 (HCT-15 colon) of 5.2 µM and a TGI (HCT-15 colon) greater than 25 µM. The GI50 (UACC-257 melanoma) was 6.39 µM, the TGI (UACC-257 melanoma) was 19.2 µM and the GI50 (SR leukemia) was 0.786 µM. It also gave a TGI (SR leukemia) of 4.85 µM, a GI50 (HCC-2998 colon) of 7.96 µM and a TGI (HCC-2998 colon) greater than 25 µM. For the same molecule, the GI50 (A549 NSCLC) was 4.62 µM, the TGI (A549 NSCLC) was 18.8 µM and the GI50 (HOP-62 NSCLC) was 6.73 µM. For the same molecule, the TGI (HOP-62 NSCLC) was greater than 25 µM, the GI50 (ACHN renal) was 4.91 µM and the TGI (ACHN renal) was greater than 24 µM. It also gave a GI50 (U251 CNS) of 1.96 µM and a TGI (U251 CNS) greater than 19.8 µM.
Molecule `COc1cc(-c2nn(-c3cccc(NC(=O)CCN4CCN(C)CC4)c3)cc2-c2ccncc2)ccc1Cl` has a GI50 (OVCAR-8 ovarian) of 2.77 µM, a TGI (OVCAR-8 ovarian) of 12 µM and a GI50 (NCI-H23 lung) of 2.38 µM. For the same molecule, the TGI (NCI-H23 lung) was 10.4 µM, the GI50 (HCT-15 colon) was 1.08 µM and the TGI (HCT-15 colon) was 4.11 µM. It also gave a GI50 (UACC-257 melanoma) of 1.44 µM, a TGI (UACC-257 melanoma) of 3.07 µM and a GI50 (SR leukemia) of 0.471 µM. The TGI (SR leukemia) was 2.64 µM, the GI50 (HCC-2998 colon) was 1.86 µM and the TGI (HCC-2998 colon) was 3.79 µM. It also gave a GI50 (A549 NSCLC) of 1.4 µM, a TGI (A549 NSCLC) of 4.9 µM and a GI50 (HOP-62 NSCLC) of 1.36 µM. It also gave a TGI (HOP-62 NSCLC) of 4.38 µM, a GI50 (ACHN renal) of 1.61 µM and a TGI (ACHN renal) of 10.7 µM. For the same molecule, the GI50 (U251 CNS) was 1.29 µM and the TGI (U251 CNS) was 3.4 µM.
Molecule `COC(=O)C1=C(\O)C[C@@]2(C)CC[C@@H](C(=O)OC)C2C/C=C\1C(=O)OC` (stereo partly specified) has a TGI (OVCAR-8 ovarian) greater than 100 µM, a TGI (HCT-15 colon) greater than 100 µM and a TGI (UACC-257 melanoma) greater than 100 µM. For the same molecule, the TGI (SR leukemia) was greater than 100 µM, the TGI (HCC-2998 colon) was greater than 100 µM and the TGI (A549 NSCLC) was greater than 100 µM. For the same molecule, the TGI (HOP-62 NSCLC) was greater than 100 µM, the TGI (ACHN renal) was greater than 100 µM and the TGI (U251 CNS) was greater than 100 µM.
Molecule `COc1ccc2c(c1)C(=O)c1c-2c(N2CCN(C(=O)CCNCCNCCO)CC2)nc2ccccc12` has a GI50 (OVCAR-8 ovarian) of 19.5 µM, a TGI (OVCAR-8 ovarian) of 48.3 µM and a GI50 (HCT-15 colon) of 17.1 µM. For the same molecule, the TGI (HCT-15 colon) was 33.9 µM, the GI50 (UACC-257 melanoma) was 20.8 µM and the TGI (UACC-257 melanoma) was 42.1 µM. For the same molecule, the GI50 (HCC-2998 colon) was 13.8 µM, the TGI (HCC-2998 colon) was 30.1 µM and the GI50 (A549 NSCLC) was 13.2 µM. For the same molecule, the TGI (A549 NSCLC) was 28 µM, the GI50 (ACHN renal) was 16 µM and the TGI (ACHN renal) was 30.8 µM. It also gave a GI50 (U251 CNS) of 15.8 µM and a TGI (U251 CNS) of 33.8 µM.
